US20130190404A1, “CRYSTALS OF CARBOPROST TROMETHAMINE AND THE PREPARATION METHOD AS WELL AS THE USES THEREOF” (SHANGHAI TECHWELL BIOPHARMACEUTICAL CO., LTD., priority 2010, published 2013)

Assay: Purity and stability test: content of impurities by HPLC after sealed storage at 25° C. for 7 days
Assay type: physicochemical
Conditions: for Content of impurities after stored at 25° C. for 7 days: sealed storage; for Content of impurities after stored at 25° C. for 7 days / Initial content of impurities: HPLC; for Initial content of impurities: before storage (baseline of the stability test)
Protocol: In the following examples, high performance liquid chromatography (HPLC) method (European Pharmacopoeia) used for detecting the purity of the crystal of arboprost tromethamine obtained are listed as follows:
Stationary phase: silica gel, particle size 5-μm
Mobile phase: acetonitrile:aqueous Sodium Dihydrogen Phosphate (pH=2.5)=23:77 (V/V)
Column temperature: 35° C.
Detection wavelength: 200 nm
In the present example, the samples from the comparative-example and examples were test for purity and stability. The method for testing is described as follows:
The samples from comparative-example 1, example 2 and example 4 were obtained and kept at 25° C. for 7 days in sealed storage. And then the content of impurities in each sample was tested.

SMILES	Content of impurities after stored at 25° C. for 7 days [%]	Initial content of impurities [%]	stability after storage (in words) (after stored for a long time, conclusion from the table)
CCCCC[C@](C)(O)/C=C/[C@@H]1[C@@H](C/C=C\CCCC(=O)O)[C@@H](O)C[C@H]1O [Example 2, carboprost tromethamine]	0.3	0.3	
CCCCC[C@](C)(O)/C=C/[C@@H]1[C@@H](C/C=C\CCCC(=O)O)[C@@H](O)C[C@H]1O [Example 4, carboprost tromethamine]	0.2	0.2	
CCCCC[C@](C)(O)/C=C/[C@@H]1[C@@H](C/C=C\CCCC(=O)O)[C@@H](O)C[C@H]1O [crystal of carboprost tromethamine, 2-amino-2-(hydroxymethyl)propan-1,3-diol(5Z)-7-[(1R,2R,3R,5S)-3,5-dihydroxy-2-[(1E,3S)-3-hydroxy-3-methyl-1-octene]cyclopentyl]-5-heptylic acid]			excellent stability
CCCCC[C@](C)(O)/C=C/[C@@H]1[C@@H](C/C=C\CCCC(=O)O)[C@@H](O)C[C@H]1O [compound 1, carboprost tromethamine]	4.0	0.5	
